What all share (settings): incubation time: 72 h
Test [1] concerns BT-549. As to the kind of experiment: drug sensitivity score (DSS), CellTox Green (DSS (AUC-based score)); higher = stronger drug effect (viability inhibition or cytotoxicity); extreme values may be limits of the assay. In outline: (§1)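 Using 20 µl of cell suspension per well, breast cancer cell lines were seeded into 384-well plates pre-loaded with compound at 5 concentrations in 10-fold steps across a compound-specific 10,000-fold range. Incubation lasted 72 h, after which CellTox Green fluorescence at 485/520 nm and then CellTiter-Glo luminescence, following 10 min at room temperature, were recorded. Each plate was normalised to 0.1 % DMSO and a positive kill control before the drug sensitivity score was derived from the area under the fitted dose-response curve.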

In test [2] the test system is DU-4475. The description is as above. An outline of the steps: as §1
The test system of test [3] is MDA-MB-231. Described as above. In outline: as §1
Test [4] concerns CAL-120. The description is as above. An outline of the steps: as §1
Test [5] relates to MFM-223. The description is as above. An outline of the steps:
as §1

Test [6] concerns CAL-51. Described as above. In outline: as §1
Test [7] deals with MCF-10A. The test is described as above. An outline of the steps: as §1
The subject of test [8] is MDA-MB-453. The test is described as above. In outline:
as §1

For test [9], the system named is CAL-148. Described as above. In outline: as §1
Test [10] has as its system MDA-MB-436. The test is described as above. An outline of the steps:
as §1

In test [11] the test system is CAL-85-1. The description is as above. In outline: as §1
Test [12] concerns MDA-MB-468. The test is described as above. An outline of the steps: as §1
Test [13] concerns HCC1599. The description is as above. An outline of the steps:
as §1

For test [14], the system named is BT-474. Described as above. An outline of the steps: as §1
For test [15], the system named is HCC1143. Described as above. An outline of the steps: as §1
Test [16] deals with HCC1937. The test is described as above. An outline of the steps: as §1
The subject of test [17] is CAL-120. Briefly: normalised viability (% of control), CellTiter-Blue; higher = more viable cells (about 100 = DMSO control). An outline of the steps:
(§2)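 Each entry is normalised viability at a single listed concentration within a series. It comes from breast cancer cell lines incubated 72 h with compound in 384-well plates, then measured with CellTiter-Blue fluorescence at 560/590 nm. Every plate was normalised between vehicle (100) and a positive kill control (0).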

Test [18] relates to CAL-51. Described as above. An outline of the steps: as §2
The subject of test [19] is MDA-MB-436. The test is described as above. An outline of the steps: as §2
Test [20] deals with CAL-85-1. Described as above. In outline:
as §2

In test [21] the test system is MDA-MB-468. Described as above. In outline: as §2
The subject of test [22] is Hs578T. The test is described as above. An outline of the steps: as §2
The subject of test [23] is HCC1599. Described as above. In outline:
as §2

Test [24] concerns HDQ-P1. Briefly: drug sensitivity score (DSS), CellTox Green (DSS (AUC-based score)); higher = stronger drug effect (viability inhibition or cytotoxicity); extreme values may be limits of the assay. In outline: as §1
Test [25] relates to Hs578T. Described as above. In outline:
as §1

Molecules are shown by their SMILES.

For `C[C@]12CC[C@@H]3c4ccc(OC(=O)N(CCCl)CCCl)cc4CC[C@H]3[C@@H]1CC[C@@H]2O` [Estramustine], the drug sensitivity score in test [1] stood at 2.52; in test [2] it was 0; in test [3], 0; in test [4], 0; in test [5], 0; in [6] it was 6.18. For the same compound, the drug sensitivity score in test [7] worked out at 0; in test [8], 0; in test [9], 0; in test [10], 0; in test [11], 0; in [12] it was 3.38. Also, the drug sensitivity score in test [13], in test [14], in test [15] and in test [16] was 0 throughout. The normalised viability is 113% in test [17] (0.99 nM); 107% in [17] (99 nM); 105% in test [17] (990 nM); 88.7% in test [18] (0.297 nM); 86.3% in test [18] (2.97 nM); 86.7% in test [18] (9.9 nM). The normalised viability in test [19] (0.99 nM) turned out to be 95%; in test [19] (99 nM), 96.1%; in test [19] (990 nM), 99.4%; in [20] (0.297 nM), 100%; in [20] (2.97 nM), 90.9%; in test [20] (9.9 nM), 101%. In addition, the normalised viability in [21] (0.99 nM) was found to be 102%; in test [21] (99 nM), 103%; in test [21] (990 nM), 117%; in test [22] (0.99 nM), 113%; in test [22] (99 nM), 100%; in test [22] (990 nM), 98%. Further, the normalised viability in [23] (0.99 nM) was 89%; in [23] (99 nM), 76.9%; in [23] (990 nM), 98.3%.

As to `COc1cc(F)c(F)c(Nc2ccc(I)cc2F)c1NS(=O)(=O)C1(C[C@H](O)CO)CC1` [Refametinib], the drug sensitivity score in test [1] came to 0; in [24], 0; in test [2], 8.58; in test [3] it was 16.3; in test [4], 0.239; in test [5], 0. Further, the drug sensitivity score turned out to be 0 in [6]; 0 in [7]; 0 in test [8]; 0 in [9]; 0 in test [10]; 12.3 in test [11]. In addition, the drug sensitivity score in test [12] was determined as 6.47; in [25], 0; in test [13], 0; in test [14], 0; in [15] it was 0; in test [16] it was 0.

For `C[C@]1(O)C[C@@H](c2nc(-c3ccc4ccc(-c5ccccc5)nc4c3)c3c(N)nccn32)C1` [Linsitinib], the drug sensitivity score in [1] is 0; in test [24], 0; in test [2], 0; in test [3], 4.69; in test [4], 0; in test [5], 0. Moreover, the drug sensitivity score in test [6] came out at 0; in test [7] it was 0; in [8], 0; in test [9], 0; in [10] it was 14.3; in test [11] it was 0. The drug sensitivity score in test [12] is 0; in test [25], 2.22; in test [13], 0; in test [14], 0; in [15], 0; in [16] it was 0.

For the compound `COc1cc(F)c(F)c(Nc2ccc(I)cc2F)c1NS(=O)(=O)C1(C[C@H](O)CO)CC1` [RDEA119], the normalised viability amounted to 103% in test [17] (10 nM); 64.5% in [17] (1000 nM); 47.3% in [17] (10000 nM); 97% in test [18] (3 nM); 84.5% in test [18] (30 nM); 81.2% in test [18] (100 nM). The normalised viability in test [19] (10 nM) amounted to 93.3%; in [19] (1000 nM), 103%; in test [19] (10000 nM), 84.6%; in test [20] (3 nM), 95.2%; in test [20] (30 nM) it was 98.8%; in test [20] (100 nM), 97.3%. For the same compound, the normalised viability came out at 94.2% in test [21] (10 nM); 78.3% in test [21] (1000 nM); 51% in test [21] (10000 nM); 103% in [22] (10 nM); 69.7% in [22] (1000 nM); 54.5% in test [22] (10000 nM). The values for the normalised viability in [23] (10 nM), in test [23] (1000 nM) and in [23] (10000 nM) were 92.5%, 78.6% and 82%, respectively.

These data come from the supplement of paper PMC4862054.
